According to patent US8415351B2 (priority 2007, dated 2013):
Like-named read-outs stand apart in the source and are kept apart here.

Tests used:
[1] = system: genotype 1a-H77 subgenomic replicon cell line; experiment: microbe, parasite or virus in culture; type: cell-based, HCV; details: read-out: EC50 1a
[2] = system: genotype 1b-Con1 subgenomic replicon cell line; experiment: microbe, parasite or virus in culture; type: cell-based, HCV; details: read-out: EC50 1b

SMILES | EC50 ([1]; Hepatitis C virus) [nM] | EC50 ([2]; Hepatitis C virus) [nM] | EC50 ([1]; genotype 1a-H77 replicon, luciferase reporter) [nM] | EC50 ([2]; genotype 1b-Con1 replicon, luciferase reporter) [nM]
COc1c(/C=C/c2ccc(NS(C)(=O)=O)cc2C(=O)N(C)C)cc(-n2ccc(=O)[nH]c2=O)cc1C(C)(C)C [IB-L1-1.14, 2-{(E)-2-[3-tert-Butyl-5-(2,4-dioxo-3,4-dihydro-2H-pyrimidin-1-yl)-2-methoxy-phenyl]-vinyl}-5-methanesulfonylamino-N,N-dimethyl-benzamide] | 10 to 100 | < 10 | – | –
COc1c(-c2ccc3cc(NS(C)(=O)=O)ccc3c2)cc(-n2ccc(=O)[nH]c2=O)cc1-c1ccc(C)s1 [IB-L0-2.73, N-(6-(5-(2,4-dioxo-3,4-dihydropyrimidin-1(2H)-yl)-2-methoxy-3-(5-methylthiophen-2-yl)phenyl)naphthalen-2-yl)methanesulfonamide] | 100 to 1000 | 100 to 1000 | – | –
COc1c(/C=C/c2cc(F)c(NS(C)(=O)=O)cc2C)cc(-n2ccc(=O)[nH]c2=O)cc1C(C)(C)C [IB-L1-1.15, (E)-N-(4-(3-tert-butyl-5-(2,4-dioxo-3,4-dihydropyrimidin-1 (2H)-yl)-2-methoxystyryl)-2-fluoro-5-methylphenyl)methanesulfonamide] | < 10 | < 10 | – | –
COc1c(-c2ccc3c(c2)CCN(NS(C)(=O)=O)C3)cc(-n2ccc(=O)[nH]c2=O)cc1C(C)(C)C [IB-L0-2.43, N-(6-(3-tert-butyl-5-(2,4-dioxo-3,4-dihydropyrimidin-1(2H)-yl)-2-methoxyphenyl)-3,4-dihydroisoquinolin-2(1B)-yl)methanesulfonamide] | > 1000 | 100 to 1000 | – | –
COCc1cc(NS(C)(=O)=O)ccc1/C=C/c1cc(-n2ccc(=O)[nH]c2=O)cc(C(C)(C)C)c1OC [IB-L1-1.13, (E)-N-(4-(3-tert-butyl-5-(2,4-dioxo-3,4-dihydropyrimidin-1(2H)-yl)-2-methoxystyryl)-3-(methoxymethyl)phenyl)methanesulfonamide] | 10 to 100 | < 10 | – | –
COc1c(-c2ccc3c(c2)CC[C@]3(F)CNS(C)(=O)=O)cc(-n2ccc(=O)[nH]c2=O)cc1C(C)(C)C [IB-L0-2.10, (R)—N-((5-(3-tert-butyl-5-(2,4-dioxo-3,4-dihydropyrimidin-1(2H)-yl)-2-methoxyphenyl)-1-fluoro-2,3-dihydro-1H-inden-1-yl)methyl)methanesulfonamide] | < 10 | < 10 | – | –
CC(C)(C)c1cc(/C=C/c2ccc(NS(C)(=O)=O)cc2)cc(N2CCC(=O)NC2=O)c1 [IA-L1-1.16, (E)-N-(4-(3-tert-butyl-5-(2,4-dioxotetrahydropyrimidin-1(2H)-yl)styryl)phenyl)methanesulfonamide] | 10 to 100 | 10 to 100 | – | –
COC(=O)C(C)(C)c1cc(-n2ccc(=O)[nH]c2=O)cc(-c2ccc3cc(NS(C)(=O)=O)ccc3c2)c1OC [IB-L0-2.70, methyl 2-(5-(2,4-dioxo-3,4-dihydropyrimidin-1(2H)-yl)-2-methoxy-3-(6-(methylsulfonamido)naphthalen-2-yl)phenyl)-2-methylpropanoate] | > 1000 | 100 to 1000 | – | –
CC(C)(C)c1cc(NC(=O)c2ccc(NS(C)(=O)=O)cc2)cc(N2CCC(=O)NC2=O)c1 [IA-L3-1.84, N-(3-tert-butyl-5-(2,4-dioxotetrahydropyrimidin-1(2H)-yl)phenyl)-4-(methylsulfonamido) benzamide] | – | – | > 1000 | > 1000
COc1c(-c2nc3cc(NS(C)(=O)=O)ccc3o2)cc(N2CCC(=O)NC2=O)cc1C(C)(C)C [IA-L0-2.8, N-(2-(3-tert-butyl-5-(2,4-dioxotetrahydropyrimidin-1(2H)-yl)-2-methoxyphenyl)benzo[d]oxazol-5-yl)methanesulfonamide] | 100 to 1000 | 10 to 100 | – | –
COc1c(Br)cc(-n2ccc(=O)[nH]c2=O)cc1-c1ccc2cc(NS(C)(=O)=O)ccc2c1 [IB-L0-2.69, N-(6-(3-bromo-5-(2,4-dioxo-3,4-dihydropyrimidin-1(2H)-yl)-2-methoxyphenyl)naphthalen-2-yl)methanesulfonamide] | 100 to 1000 | 10 to 100 | – | –
COc1c(/C=C/c2ccc(NS(C)(=O)=O)c(F)c2)cc(-n2ccc(=O)[nH]c2=O)cc1C(C)(C)C [IB-L1-1.5, (E)-N-(4-(3-tert-butyl-5-(2,4-dioxo-3,4-dihydropyrimidin-1(2H)-yl)-2-methoxystyryl)-2-fluorophenyl)methanesulfonamide] | 10 to 100 | < 10 | – | –
COc1c(N2CCc3cc(NS(C)(=O)=O)ccc3C2)cc(-n2ccc(=O)[nH]c2=O)cc1C(C)(C)C [IB-L0-2.19, N-(2-(3-tert-butyl-5-(2,4-dioxo-3,4-dihydropyrimidin-1(2H)-yl)-2-methoxyphenyl)-1,2,3,4-tetrahydroisoquinolin-6-yl)methanesulfonamide] | 10 to 100 | 10 to 100 | – | –
CCOC(=O)c1cc(NS(C)(=O)=O)ccc1/C=C/c1cc(-n2ccc(=O)[nH]c2=O)cc(C(C)(C)C)c1OC [IB-L1-1.11, 2-{(E)-2-[3-tert-Butyl-5-(2,4-dioxo-3,4-dihydro-2H-pyrimidin-1-yl)-2-methoxy-phenyl]-vinyl}-5-methanesulfonylamino-benzoic acid ethyl ester] | 10 to 100 | < 10 | – | –
COCCN(C)C(=O)c1cc(NS(C)(=O)=O)ccc1/C=C/c1cc(-n2ccc(=O)[nH]c2=O)cc(C(C)(C)C)c1OC [IB-L1-1.24, 2-{(E)-2-[3-tert-butyl-5-(2,4-dioxo-3,4-dihydro-2H-pyrimidin-1-yl)-2-methoxy-phenyl]-vinyl}-5-methanesulfonylamino-N-(2-methoxy-ethyl)-N-methyl-benzamide] | 10 to 100 | < 10 | – | –
COc1c(/C=C/c2ccc(NS(C)(=O)=O)cc2C(=O)N2CCCC2)cc(-n2ccc(=O)[nH]c2=O)cc1C(C)(C)C [IB-L1-1.27, N-[4-{(E)-2-[3-tert-butyl-5-(2,4-dioxo-3,4-dihydro-2H-pyrimidin-1-yl)-2-methoxy-phenyl]-vinyl}-3-(pyrrolidine-1-carbonyl)-phenyl]-methanesulfonamide] | 10 to 100 | < 10 | – | –
COC(=O)c1cc(-n2ccc(=O)[nH]c2=O)cc(-c2ccc3cc(NS(C)(=O)=O)ccc3c2)c1OC [IB-L0-2.72, methyl 5-(2,4-dioxo-3,4-dihydropyrimidin-1(2H)-yl)-2-methoxy-3-(6-(methylsulfonamido)naphthalen-2-yl)benzoate] | > 1000 | 100 to 1000 | – | –
COc1c(N2Cc3ccc(NS(C)(=O)=O)cc3C2)cc(-n2ccc(=O)[nH]c2=O)cc1C(C)(C)C [IB-L0-2.79, N-(2-(3-tert-butyl-5-(2,4-dioxo-3,4-dihydropyrimidin-1(2H)-yl)-2-methoxyphenyl)isoindolin-5-yl)methanesulfonamide] | 100 to 1000 | 100 to 1000 | – | –
COc1c(-c2ccc3nc(Cl)sc3c2)cc(-n2ccc(=O)[nH]c2=O)cc1C(C)(C)C [IB-L0-2.38, 1-(3-tert-butyl-5-(2-chlorobenzo[d]thiazol-6-yl)-4-methoxyphenyl)pyrimidine-2,4(1H,3H)-dione] | > 1000 | > 1000 | – | –
COc1c(-c2ccc3cc(NS(C)(=O)=O)ccc3c2)cc(-n2ccc(=O)[nH]c2=O)cc1C(F)(F)F [IB-L0-2.56, N-(6-(5-(2,4-dioxo-3,4-dihydropyrimidin-1(2H)-yl)-2-methoxy-3-(trifluoromethyl)phenyl)naphthalen-2-yl)methanesulfonamide] | 100 to 1000 | < 10 | – | –
COc1c(C2CC2c2ccc(NS(C)(=O)=O)cc2)cc(N2CCC(=O)NC2=O)cc1C(C)(C)C (centres unmarked) [IA-L8-1.1, N-(4-(2-(3-tert-butyl-5-(2,4-dioxotetrahydropyrimidin-1(2H)-yl)-2-methoxyphenyl)cyclopropyl)phenyl)methanesulfonamide] | 100 to 1000 | 100 to 1000 | – | –
COc1c(/C=C/c2ccc(NS(C)(=O)=O)cc2)cc(-n2ccc(=O)[nH]c2=O)cc1-c1ccsc1 [IB-L1-1.47, (E)-N-(4-(5-(2,4-dioxo-3,4-dihydropyrimidin-1(2H)-yl)-2-methoxy-3-(thiophen-3-yl)styryl)phenyl)methanesulfonamide] | 100 to 1000 | 10 to 100 | – | –
COc1c(/C=C/c2ccc(NS(C)(=O)=O)cc2CN2CC(O)C2)cc(-n2ccc(=O)[nH]c2=O)cc1C(C)(C)C [IB-L1-1.29, N-[4-{(E)-2-[3-tert-butyl-5-(2,4-dioxo-3,4-dihydro-2H-pyrimidin-1-yl)-2-methoxy-phenyl]-vinyl}-3-(3-hydroxy-azetidin-1-ylmethyl)-phenyl]-methanesulfonamide] | 100 to 1000 | 100 to 1000 | – | –
COc1c(/C=C/c2ccc(N(C(C)=O)S(C)(=O)=O)cc2)cc(N2CCC(=O)NC2=O)cc1C(C)(C)C [IA-L1-1.11, (E)-N-(4-(3-tert-butyl-5-(2,4-dioxotetrahydropyrimidin-1(2H)-yl)-2-methoxystyryl)phenyl)-N-(methylsulfonyl)acetamide] | < 10 | < 10 | – | –
COc1c(-c2nc3ccccc3s2)cc(N2CCC(=O)NC2=O)cc1C(C)(C)C [IA-L0-2.3, 1-(3-(benzo[d]thiazol-2-yl)-5-tert-butyl-4-methoxyphenyl)dihydro pyrimidine-2,4(1H,3H)-dione] | 100 to 1000 | 100 to 1000 | – | –
COc1c(-c2ccc3nc(N)sc3c2)cc(-n2ccc(=O)[nH]c2=O)cc1C(C)(C)C [IB-L0-2.27, 1-(3-(2-aminobenzo[d]thiazol-6-yl)-5-tert-butyl-4-methoxy-phenyl)pyrimidine-2,4(1H,3H)-dione] | 100 to 1000 | 10 to 100 | – | –
COc1c(/C=C/c2ccc(NS(C)(=O)=O)cc2CN2CCCC2)cc(-n2ccc(=O)[nH]c2=O)cc1C(C)(C)C [IB-L1-1.33, N-(4-{(E)-2-[3-tert-Butyl-5-(2,4-dioxo-3,4-dihydro-2H-pyrimidin-1-yl)-2-methoxy-phenyl]-vinyl}-3-pyrrolidin-1-ylmethyl-phenyl)-methanesulfonamide] | 100 to 1000 | 10 to 100 | – | –
COc1c(-c2ccc3c(c2)CC=C3C(C)(C)NS(C)(=O)=O)cc(-n2ccc(=O)[nH]c2=O)cc1C(C)(C)C [IB-L0-2.41, N-(2-(6-(3-tert-butyl-5-(2,4-dioxo-3,4-dihydropyrimidin-1(2H)-yl)-2-methoxyphenyl)-1H-inden-3-yl)propan-2-yl)methanesulfonamide] | 100 to 1000 | 100 to 1000 | – | –
